Experimental data: ChEMBL document CHEMBL1122489, “Pyrimidine derivatives. 4. Synthesis and antihypertensive activity of 4-amino-2-(4-cinnamoylpiperazino)-6,7-dimethoxyquinazoline derivatives” (J Med Chem, 1983)

How the values were obtained:
Assay type in all cases: functional
Rattus norvegicus [1] = experiment: Effect on blood pressure (initial) in renal hypertensive rats dosed at 10 mg/kg
Rattus norvegicus [2] = experiment: Antihypertensive activity rating in conscious SHR after 3 h post dose at 3 mg/kg (po)
Rattus norvegicus [3] = experiment: Effect on blood pressure in renal hypertensive rats dosed at 10 mg/kg after 12 h
Rattus norvegicus [4] = experiment: Effect on blood pressure in renal hypertensive rats dosed at 3 mg/kg after 24 h
Rattus norvegicus [5] = experiment: Antihypertensive activity rating in conscious SHR after 1 hr post dose at 3 mg/kg (po)
Rattus norvegicus [6] = experiment: Effect on blood pressure in renal hypertensive rats dosed at 10 mg/kg after 1 h
Rattus norvegicus [7] = experiment: Antihypertensive activity rating in conscious SHR after 6 hr post dose at 3 mg/kg (po)
Rattus norvegicus [8] = experiment: Maximum percent decrease in blood pressure in SHR dosed at 1 mg/kg (hour post dose in parentheses)
Rattus norvegicus [9] = experiment: Effect on blood pressure in renal hypertensive rats dosed at 10 mg/kg after 24 h
Rattus norvegicus [10] = experiment: Antihypertensive activity rating in conscious SHR after 3 hr post dose at 0.3 mg/kg (po)
Rattus norvegicus [11] = experiment: Effect on blood pressure in renal hypertensive rats dosed at 3 mg/kg after 12 h
Rattus norvegicus [12] = experiment: Antihypertensive activity rating in conscious SHR after 6 hr post dose at 0.3 mg/kg (po)
Rattus norvegicus [13] = experiment: Antihypertensive activity rating in conscious SHR after 24 hr post dose at 1 mg/kg (po)
Rattus norvegicus [14] = experiment: Antihypertensive activity rating in conscious SHR after 1 hr post dose at 0.3 mg/kg (po)
Rattus norvegicus [15] = experiment: Effect on blood pressure in renal hypertensive rats dosed at 3 mg/kg after 1 h
Rattus norvegicus [16] = experiment: Effect on blood pressure in renal hypertensive rats dosed at 10 mg/kg after 6 h
Rattus norvegicus [17] = experiment: Maximum percent decrease in blood pressure in SHR dosed at 0.3 mg/kg (hour post dose in parentheses)
Rattus norvegicus [18] = experiment: Maximum percent decrease in blood pressure in SHR dosed at 3 mg/kg (hour post dose in parentheses)
Rattus norvegicus [19] = experiment: Effect on blood pressure in renal hypertensive rats dosed at 3 mg/kg after 3 h
Rattus norvegicus [20] = experiment: Effect on blood pressure in renal hypertensive rats dosed at 10 mg/kg after 3 h
[21] = Potency ratio in rat thoracic aorta
Rattus norvegicus [22] = experiment: Antihypertensive activity rating in conscious SHR after 1 hr post dose at 1 mg/kg (po)
Rattus norvegicus [23] = experiment: Effect on blood pressure in renal hypertensive rats dosed at 3 mg/kg after 6 h
Rattus norvegicus [24] = experiment: Antihypertensive activity rating in conscious SHR after 3 hr post dose at 1 mg/kg (po)
Rattus norvegicus [25] = experiment: Antihypertensive activity rating in conscious SHR after 6 hr post dose at 1 mg/kg (po)
Rattus norvegicus [26] = species: Rattus norvegicus; experiment: Compound was tested for alpha-adrenoceptor blocking activity by its ability to antagonize norepinephrine contraction in the rat thoracic aorta; conditions: read-out: pA2 (converted)
Rattus norvegicus [27] = experiment: Antihypertensive activity rating in conscious SHR after 24 hr post dose at 0.3 mg/kg (po)
Rattus norvegicus [28] = experiment: Antihypertensive activity rating in conscious SHR after 24 hr post dose at 3 mg/kg (po)
Rattus norvegicus [29] = experiment: Effect on mean blood pressure (initial) in renal hypertensive rats dosed at 3 mg/kg
Rattus norvegicus [30] = experiment: Effect on blood pressure in renal hypertensive rats dosed at 3 mg/kg, po after 3 h
Rattus norvegicus [31] = experiment: Effect on blood pressure in renal hypertensive rats dosed at 10mg/kg, po after 6 h
Rattus norvegicus [32] = experiment: Effect on blood pressure in renal hypertensive rats dosed at 3 mg/kg, po after 1 h
Rattus norvegicus [33] = experiment: Effect on mean blood pressure (initial) in renal hypertensive rats dosed at 3 mg/kg, po
Rattus norvegicus [34] = experiment: Effect on blood pressure in renal hypertensive rats dosed at 10 mg/kg, po after 3 h
Rattus norvegicus [35] = experiment: Effect on blood pressure in renal hypertensive rats dosed at 3 mg/kg, po after 24 h
Rattus norvegicus [36] = experiment: Effect on blood pressure in renal hypertensive rats dosed at 10mg/kg, po after 1 h
Rattus norvegicus [37] = experiment: Effect on blood pressure (initial) in renal hypertensive rats dosed at 10mg/kg, po
Rattus norvegicus [38] = experiment: Effect on blood pressure in renal hypertensive rats dosed at 10 mg/kg, po after 24 h
Rattus norvegicus [39] = experiment: Effect on blood pressure in renal hypertensive rats dosed at 3 mg/kg, po after 6 h

SMILES	Mean blood pressure (Rattus norvegicus [1])	Activity (Rattus norvegicus [2])	Mean blood pressure (Rattus norvegicus [4])	Activity (Rattus norvegicus [5])	Mean blood pressure (Rattus norvegicus [6])	Activity (Rattus norvegicus [7])	Decrease (Rattus norvegicus [8])	Activity (Rattus norvegicus [10])	Activity (Rattus norvegicus [12])	Activity (Rattus norvegicus [13])	Activity (Rattus norvegicus [14])	Decrease (Rattus norvegicus [17])	Decrease (Rattus norvegicus [18])	Ratio [21]	Activity (Rattus norvegicus [22])	Activity (Rattus norvegicus [24])	Activity (Rattus norvegicus [25])	Kb (Rattus norvegicus [26])	Activity (Rattus norvegicus [27])	Activity (Rattus norvegicus [28])	further results
CCOc1ccc(/C=C/C(=O)N2CCN(c3nc(N)c4cc(OC)c(OC)cc4n3)CC2)cc1	204 mmHg	1	-2.6 mmHg	0	-6.2 mmHg	2	21%	0	0	0	0	13%	24%	0.02	0	1	2	2.19 nM	1	0	Mean blood pressure (Rattus norvegicus [3]): -15.5 mmHg; Mean blood pressure (Rattus norvegicus [9]): -10.4 mmHg; Mean blood pressure (Rattus norvegicus [11]): -10.6 mmHg; Mean blood pressure (Rattus norvegicus [15]): -4 mmHg; Mean blood pressure (Rattus norvegicus [16]): -19.1 mmHg; Mean blood pressure (Rattus norvegicus [19]): -11.7 mmHg; Mean blood pressure (Rattus norvegicus [20]): -16.3 mmHg; Mean blood pressure (Rattus norvegicus [23]): -14.5 mmHg; Mean blood pressure (Rattus norvegicus [29]): 203 mmHg
COc1cc2nc(N3CCN(C(=O)/C=C/c4ccco4)CC3)nc(N)c2cc1OC.Cl	181 mmHg	2	-5.2 mmHg	3	-17.9 mmHg	2	28%	1	1	0	1	15%	41%	0.4	2	1	2	0.141 nM	0	0	Mean blood pressure (Rattus norvegicus [9]): -11.7 mmHg; Mean blood pressure (Rattus norvegicus [15]): -17.1 mmHg; Mean blood pressure (Rattus norvegicus [16]): -17.4 mmHg; Mean blood pressure (Rattus norvegicus [19]): -16.9 mmHg; Mean blood pressure (Rattus norvegicus [20]): -16.3 mmHg; Mean blood pressure (Rattus norvegicus [23]): -18.3 mmHg; Mean blood pressure (Rattus norvegicus [29]): 193 mmHg
COc1cc2nc(N3CCN(C(=O)c4ccco4)CC3)nc(N)c2cc1OC.Cl [PRAZOSIN HYDROCHLORIDE]	–	1	–	2	–	1	25%	1	1	0	1	19%	27%	1	2	2	1	0.0513 nM	0	0	Mean blood pressure (Rattus norvegicus [30]): -15.5 mmHg; Mean blood pressure (Rattus norvegicus [31]): -14.7 mmHg; Mean blood pressure (Rattus norvegicus [32]): -17.9 mmHg; Mean blood pressure (Rattus norvegicus [33]): 197 mmHg; Mean blood pressure (Rattus norvegicus [34]): -17.6 mmHg; Mean blood pressure (Rattus norvegicus [35]): -3.3 mmHg; Mean blood pressure (Rattus norvegicus [36]): -25.6 mmHg; Mean blood pressure (Rattus norvegicus [37]): 187 mmHg; Mean blood pressure (Rattus norvegicus [38]): -8.9 mmHg; Mean blood pressure (Rattus norvegicus [39]): -14.5 mmHg
